From patent US10952988B2, “Methods for controlling the spread of dirofilariosis” (priority 2015, dated 2021)

Tested on: Dirofilaria immitis (JYD-34) resistant strain
Settings: in vivo

## milbemycin oxime
  average worms per dog: 7.2 worms per dog
  efficacy (adult worm reduction versus untreated Group 1): 70.7%
